“And” between values parts separate entries of the source, which are not always exact repeats. Equal entries are not always repeated.
How the values were obtained:
BUBR1 promoter = experiment: Luciferase assay of BUBR1 promoter in HEK-293T cells; type: cell-based; conditions: for Relative luciferase activity of BUBR1 promoter (UPCP/Mock): Fig. 4b, HEK293T, Mock = 1, P=0.684
Protocol: The experiments were performed as described previously. The BUBR1 (–1,200 to +100) promoter or the DNA fragment of BUBR1 mRNA 3′-UTR was inserted into the pGL4.20 vector. Cells were plated in 24-well plates. After 24 h, cells were cotransfected with 200 ng of the indicated firefly luciferase reporter plasmid and 50 ng of Renilla luciferase normalization control plasmid using PEI. At 48 h after transfection, cell lysates were collected to measure luciferase activity using the Dual-Luciferase Reporter Assay System (Promega, catalog no. E1910) according to the manufacturer’s instructions. Luciferase reporter assay was carried out on an TD-20/20 Turner Designs luminometer, data were analyzed and further processed in Microsoft Excel and GraphPad Prism v.7.

HGADFN003 cells = experiment: SA-β-gal staining of HGADFN003 cells; type: cell-based, human; conditions: for Relative percentage of SA-β-gal positive cells: Fig. 5a, Mock 32, 39, 31, P=0.0059; for SA-β-gal positive cells: HGADFN003, Extended Data Fig. 10c
Protocol: SA-β-gal staining was performed as previously described. Cells were fixed in 0.5% glutaraldehyde for 15 min at room temperature, washed three times with PBS (pH 6.0) containing 1 mM MgCl2 and exposed overnight 37 °C to containing 1 mg ml^–1 5-bromo-4-chloro-3-indolyl-β-D-galactopyranoside (MCE, catalog no. HY-15934), 0.12 mM potassium ferrocyanide (Sigma, catalog no. P3289), 0.12 mM potassium ferricyanide (Sigma, catalog no. P8131) and 1 mM MgCl2 PBS buffer (pH 6.0). Cells were washed three times with H2O and observed under a microscope (OLYMPUS CKX53). SA-β-gal positive cells were quantified by investigators who were blinded to the identity of the analyzed cell.

IMR90 cells = experiment: Etoposide-, Ras- and H2O2-induced early stage senescence of IMR90 cells; type: cell-based, human; conditions: IMR90, UPCP 6 μM, another 5 days; SA-β-gal, Ki67, Western blot
Description: HGPS is an extremely rare congenital genetic disease, and its treatments are still under theoretical research. […] Also, to investigate the role of UPCP on other senescence models, we used Etoposide, Ras or H2O2 to induce senescence of IMR90 cells, and added UPCP to the cells treated with the drugs mentioned above when the cells just entered early stage senescence. […] Further work aimed at obtaining UPCPs with stronger stability, longer half-life and optimized physical structures are under planning. Therefore, UPCP may have broad application prospects in the treatment of HGPS.
SA-β-gal positive cells was calculated (c). Scale bars: 200 μm. d. Western blot analysis of Lamin B1, CyclinA2, IL-6 and p21 in senescent IMR90 cells with the indicated treatments. e,f.
Immunofluorescence analysis of Ki67 in IMR90 cells with the indicated treatment. Representative […]
≥ 200 cells. Scale bars: 50 μm. For bar and line graphs, data are presented as mean ± SD.
Statistical significance was determined in c and f using two-tailed unpaired Student’s t-test.
Supplementary Data Figure 2. UPCP delays Etoposide, Ras and H2O2 induced early stage cellular senescence. a. […]
and the percentage of the Ki67 positive cells was calculated (f), n ≥ 200 cells. […]
For bar and line graphs, data are presented as mean ± SD. Statistical significance was determined inc and f using two-tailed unpaired Student’s t-test.

[1] = system: muscle of Lmna^G609G/G609G mice; experiment: Masson staining of muscle (fibrosis); type: in vivo, mouse; conditions: 13 weeks
Protocol: For UPCP injection, 14-day-old Lmna^G609G/G609G mice were injected intraperitoneally with either PBS or UPCP (20 mg kg^–1, every other day) and wild-type mice were injected with PBS. […] Bodyweight and lifespan were monitored after UPCP treatment. The survival rate was analyzed by the Kaplan–Meier method. We only included mice that were of sufficient bodyweight at the start of the experiment, typically at least 80% of the average littermate weight of the same sex and genotype. All animals meeting criteria for inclusion were then divided randomly into three groups according to genotype (Lmna^+/+, Lmna^G609G/G609G-Mock and Lmna^G609G/G609G-UPCP).
For histological analyses, mice of the indicated genotypes were perfused with PBS, then with 4% paraformaldehyde (PFA). Whole organs were incubated in 4% PFA at 4 °C for 16 h. All samples were paraffin embedded and sectioning by Servicebio. Subsequently, the tissues were deparaffinized and rehydrated before hematoxylin-eosin (HE) or Masson staining or immunohistochemistry (IHC). HE staining was performed using an HE Kit (Absin, catalog no. abs9217), and Masson staining was performed using Masson’s Trichrome Stain Kit (Absin, catalog no. abs9347) according to the manufacturer’s instructions. The thickness of the layers or the areas of fibrosis in the tissues were calculated using ImageJ software by a blinded investigator. For IHC, the sections were completed by the Servicebio. The images were acquired by a microscope (Leica DMi8) and analyzed with Leica Application Suite X v.3.6.0.24 (Leica). For BubR1, cytoplasmic staining in cells was scored on the intensity of staining and the proportion of positive cells by a blinded investigator. The intensity of the staining was graded as 0 (negative, no color), 1 (low positive, light yellow), 2 (positive, brown yellow) or 3 (high positive, brown), and the number of positive cells was graded as 0 (<5%), 1 (5–25%), 2 (25–50%), 3 (51–75%) or 4 (>75%). The final score was defined as staining number score multiplied by staining color score. For lamin B1, p21 or IL-6, the proportion of positive cells was used to quantify the expression of protein in tissues by a blinded investigator.

H-YGRKKRRQRRRYNLRSRTVLCGTCGQPADKASASGSGAQSPQNCSIM-OH (cysteines drawn unpaired) [UPCP, unique progerin C-terminal peptide]
Relative luciferase activity of BUBR1 promoter (UPCP/Mock) (BUBR1 promoter; replicate 1): 0.9458 | Relative luciferase activity of BUBR1 promoter (UPCP/Mock) (BUBR1 promoter; replicate 2): 1.36 | Relative luciferase activity of BUBR1 promoter (UPCP/Mock) (BUBR1 promoter; replicate 3): 0.8889 | luciferase activity of the BUBR1 promoter (BUBR1 promoter; HEK-293T cells): failed to enhance luciferase activity of the BUBR1 promoter | Relative percentage of SA-β-gal positive cells (HGADFN003 cells; HGADFN003, replicate 1): 15% | Relative percentage of SA-β-gal positive cells (HGADFN003 cells; HGADFN003, replicate 2): 10% | Relative percentage of SA-β-gal positive cells (HGADFN003 cells; HGADFN003, replicate 3): 19% | SA-β-gal activity (FTI-277/UPCP comparison, words) (HGADFN003 cells; HGADFN003): decreased the activity of SA-β-gal | SA-β-gal positive cells (HGADFN003 cells; replicate 1): 12% | SA-β-gal positive cells (HGADFN003 cells; replicate 2): 18% | SA-β-gal positive cells (HGADFN003 cells; replicate 3): 25% | SA-β-gal activity (HGADFN003 cells; HGPS cells): reduced activity of SA-β-gal | efficacy on HGPS cellular senescence relative to FTI-277 (HGADFN003 cells; HGPS cells): comparable with farnesyltransferase inhibitors (FTI-277) | etoposide-, ras- and H2O2-induced early stage cellular senescence (IMR90 cells): delayed etoposide-, ras- and H2O2-induced early stage cellular senescence modestly | fibrosis, muscle ([1]; 20 mg kg^–1 i.p. every other day): decrease of fibrosis in the muscle | fibrosis area/ total area, muscle ([1]; 20 mg kg^–1 i.p., replicate 1): 0.003895 and 0.3895% | fibrosis area, muscle ([1]; 20 mg kg^–1 i.p., replicate 1, total area 340.18): 1.325 | fibrosis area, muscle ([1]; 20 mg kg^–1 i.p., replicate 2, total area 353.151): 1.196 | fibrosis area, muscle ([1]; 20 mg kg^–1 i.p., replicate 3, total area 365.081): 2.133

— publication PMC10154249, “Unique progerin C-terminal peptide ameliorates Hutchinson–Gilford progeria syndrome phenotype by rescuing BUBR1” (Nature Aging, 2023)
